Results on 12 compounds are retold here after paper PMC10388311, “Innovative Strategy toward Mutant CFTR Rescue in Cystic Fibrosis: Design and Synthesis of Thiadiazole Inhibitors of the E3 Ligase RNF5” (Journal of Medicinal Chemistry, 2023).

Molecules are shown by their SMILES.

This test concerns the target F508del-CFTR in CFBE41o– cells (Homo sapiens, UniProt Q99942). The experiment in a line: HS-YFP microfluorimetric assay of F508del-CFTR rescue (corrector activity). In kind it is cell-based. The following applies: CFBE41o– cells co-expressing F508del-CFTR and HS-YFP, 24 h treatment, Figure 5. The procedure:
As a primary screen, the new thiadiazole derivatives 1–46 (Table 1) were tested for their ability to rescue the F508del-CFTR trafficking defect in CFBE41o^– cells, stably co-expressing F508del-CFTR and the HS-YFP (Figure 5). This cell line has been extensively used by our group, in combination with the microfluorimetric assay based on the HS-YFP, to identify and characterize many CFTR correctors.[39],[47] This assay relies on the hypothesis that RNF5 inhibition results in increased mutant CFTR processing and activity. Therefore, it can easily identify putative RNF5 inhibitors, but not other types of RNF5-binding compounds that could have no effect or have a negative effect on CFTR function, such as RNF5 activators (see analog-1). Thus, we opted for this assay as our primary aim was the identification of RNF5 inhibitors as a possible therapeutic strategy in CF. Twenty-four hours after seeding on 96-well plates, CFBE41o^– cells stably expressing F508del-CFTR and the HS-YFP were treated with test compounds at the desired concentration, one compound per well. Cells treated with vehicle alone (DMSO) and with corrector VX-809 (1 μM), respectively, served as negative and positive controls. At the time of the assay, cells were washed with PBS containing (in […]) 137 NaCl, 2.7 KCl, 8.1 Na2HPO4, 1.5 KH2PO4, 1 CaCl2, and 0.5 MgCl2. Cells were then incubated for 25 min with […] of PBS plus forskolin (20 μM) and VX-770 (1 μM) to maximally stimulate F508del-CFTR. Cells were then transferred to a microplate reader (FluoStar Galaxy; BMG Labtech, Offenburg, Germany) for CFTR activity determination. The plate reader was equipped with high-quality excitation (HQ500/20X: 500 ± 10 nm) and emission (HQ535/30M: 535 ± 15 nm) filters for YFP (Chroma Technology). Each assay comprised a continuous 14 s fluorescence reading and 2 s before and 12 s after injection of […] of an iodide-containing solution (PBS with Cl^– replaced by I^–; final I^– concentration […]). Data were normalized to the initial background-subtracted fluorescence. To determine the I^– influx rate, the final 11 s of the data for each well was fitted with an exponential function to extrapolate initial slope (dF/dt). Reproducibility of results was confirmed by performing three independent experiments. CFBE41o^– cells co-expressing F508del-CFTR and the HS-YFP were reverse-transfected with 50 nM (final concentration) siRNAs (Stealth, Life Technologies) in the presence of lipofectamine 2000 as a transfection agent. The following day, the medium was changed, and the cells were incubated at 37 °C for additional 24 h treated with test compounds at the desired concentration, prior to processing the cells for the YFP-based functional assay.

F508del-CFTR in CFBE41o– cells, sequence (Q99942 2-180): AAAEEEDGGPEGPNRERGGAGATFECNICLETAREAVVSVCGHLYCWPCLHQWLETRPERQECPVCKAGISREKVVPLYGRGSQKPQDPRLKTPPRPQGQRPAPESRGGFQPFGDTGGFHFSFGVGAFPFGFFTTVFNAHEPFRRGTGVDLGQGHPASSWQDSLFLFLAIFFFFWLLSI
F508del-CFTR in CFBE41o– cells, sequence (P13569 with tags, fused parts or gaps DEL508-508 partner): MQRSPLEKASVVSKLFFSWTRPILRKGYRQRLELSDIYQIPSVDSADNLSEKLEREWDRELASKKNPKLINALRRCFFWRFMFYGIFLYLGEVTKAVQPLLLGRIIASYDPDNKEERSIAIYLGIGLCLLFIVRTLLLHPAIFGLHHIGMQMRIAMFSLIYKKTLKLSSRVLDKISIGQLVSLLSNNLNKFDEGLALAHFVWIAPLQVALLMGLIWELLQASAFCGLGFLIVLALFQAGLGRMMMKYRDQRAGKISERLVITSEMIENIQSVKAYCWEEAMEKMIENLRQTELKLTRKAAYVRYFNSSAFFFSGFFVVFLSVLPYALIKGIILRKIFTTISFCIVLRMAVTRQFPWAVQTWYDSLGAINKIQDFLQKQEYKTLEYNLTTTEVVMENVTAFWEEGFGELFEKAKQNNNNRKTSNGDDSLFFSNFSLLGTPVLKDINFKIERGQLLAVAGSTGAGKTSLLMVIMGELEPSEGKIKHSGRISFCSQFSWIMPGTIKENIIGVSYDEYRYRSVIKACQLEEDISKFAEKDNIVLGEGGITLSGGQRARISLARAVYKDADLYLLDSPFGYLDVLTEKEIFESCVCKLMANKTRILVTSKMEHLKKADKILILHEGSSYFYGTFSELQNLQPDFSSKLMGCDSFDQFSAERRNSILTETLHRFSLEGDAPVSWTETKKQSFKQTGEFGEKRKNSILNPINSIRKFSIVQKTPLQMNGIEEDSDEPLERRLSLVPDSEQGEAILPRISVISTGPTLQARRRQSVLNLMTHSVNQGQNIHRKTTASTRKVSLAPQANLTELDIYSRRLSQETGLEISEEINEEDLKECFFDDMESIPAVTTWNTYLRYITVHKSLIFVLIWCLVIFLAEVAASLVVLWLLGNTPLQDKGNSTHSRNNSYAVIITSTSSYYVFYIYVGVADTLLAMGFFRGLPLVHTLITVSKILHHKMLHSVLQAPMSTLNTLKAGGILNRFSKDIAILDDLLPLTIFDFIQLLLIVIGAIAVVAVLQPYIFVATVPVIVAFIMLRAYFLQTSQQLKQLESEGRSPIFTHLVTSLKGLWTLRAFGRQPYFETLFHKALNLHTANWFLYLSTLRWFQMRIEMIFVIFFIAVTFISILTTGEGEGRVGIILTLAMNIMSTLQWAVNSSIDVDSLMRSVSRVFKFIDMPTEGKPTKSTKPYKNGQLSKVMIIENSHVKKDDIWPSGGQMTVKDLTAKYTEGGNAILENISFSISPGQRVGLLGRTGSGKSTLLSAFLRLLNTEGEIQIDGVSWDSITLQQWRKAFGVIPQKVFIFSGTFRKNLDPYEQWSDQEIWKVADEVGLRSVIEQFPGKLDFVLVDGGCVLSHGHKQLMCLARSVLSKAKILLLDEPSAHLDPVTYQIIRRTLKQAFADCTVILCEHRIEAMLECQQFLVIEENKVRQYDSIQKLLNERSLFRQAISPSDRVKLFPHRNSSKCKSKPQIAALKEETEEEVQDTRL

For the compound `Cc1ns/c(=N\C(=N\c2ccccc2)c2ccccc2)n1Cc1cccc(N(C)C)c1` [Compound 22, (E)-N-((Z)-4-(3-(Dimethylamino)benzyl)-3-methyl-1,2,4-thiadiazol-5(4H)-ylidene)-N′-phenylbenzimidamide], the “F508del-CFTR corrector activity compared with inh-2 (CFTR activity, primary screen)” value is given as “did not affect the activity”.

As for `Cc1ns/c(=N\C(=N\c2ccccc2)c2cccnc2)n1Cc1ccccc1` [Compound 35, (E)-N-((Z)-4-Benzyl-3-methyl-1,2,4-thiadiazol-5(4H)-ylidene)-N′-phenylnicotinimidamide], the “F508del-CFTR corrector activity compared with inh-2 (CFTR activity, primary screen)” value is listed as “drop of activity”.

As for `Cc1ns/c(=N\C(=N\c2ccccc2)c2ccccc2)n1CCc1ccccc1` [Compound 4, (E)-N-((Z)-3-Methyl-4-phenethyl-1,2,4-thiadiazol-5(4H)-ylidene)-N′-phenylbenzimidamide], the “F508del-CFTR corrector activity compared with inh-2 (CFTR activity, primary screen)” value was “devoid of significant F508del-CFTR corrector activity”.

Take `Cc1ns/c(=N\C(=N\c2ccccc2)c2ccccc2)n1Cc1cccc(OC(C)C)c1` [Compound 18, (E)-N-((Z)-4-(3-Isopropoxybenzyl)-3-methyl-1,2,4-thiadiazol-5(4H)-ylidene)-N′-phenylbenzimidamide]: the “F508del-CFTR corrector activity compared with inh-2 (CFTR activity, primary screen)” value is listed as “decreased potency”.

`Cc1ns/c(=N\C(=N\c2ccccc2)c2ccccc2)n1Cc1cccc(F)c1` [Compound 23, (E)-N-((Z)-4-(3-Fluorobenzyl)-3-methyl-1,2,4-thiadiazol-5(4H)-ylidene)-N′-phenylbenzimidamide]: the “F508del-CFTR corrector activity compared with inh-2 (CFTR activity, primary screen)” value is on record as “did not affect the activity”.

`Cc1ns/c(=N\C(=N\c2cccnc2)c2ccccc2)n1Cc1ccccc1` [Compound 41, (E)-N-((Z)-4-Benzyl-3-methyl-1,2,4-thiadiazol-5(4H)-ylidene)-N′-(pyridin-3-yl)benzimidamide]: the “F508del-CFTR corrector activity compared with inh-2 (CFTR activity, primary screen)” value is “inactive analogs”.

With `Cc1ns/c(=N\C(=N\c2ccccc2)c2ccccc2)n1Cc1ccccc1C(F)(F)F` [Compound 26, (E)-N-((Z)-3-Methyl-4-(2-(trifluoromethyl)benzyl)-1,2,4-thiadiazol-5(4H)-ylidene)-N′-phenylbenzimidamide], the “F508del-CFTR corrector activity compared with inh-2 (CFTR activity, primary screen)” value is “detrimental effect”.

On to `Cc1ccccc1Cn1c(C)ns/c1=N\C(=N\c1ccccc1)c1ccccc1` [Compound 25, (E)-N-((Z)-3-Methyl-4-(2-methylbenzyl)-1,2,4-thiadiazol-5(4H)-ylidene)-N′-phenylbenzimidamide], for which the “F508del-CFTR corrector activity compared with inh-2 (CFTR activity, primary screen)” value is “slight increase in activity”.

Take `COc1ccc(Cn2c(C)ns/c2=N\C(=N\c2ccccc2)c2ccccc2)cc1` [Compound 7, (E)-N-((Z)-4-(4-Methoxybenzyl)-3-methyl-1,2,4-thiadiazol-5(4H)-ylidene)-N′-phenylbenzimidamide]: the “F508del-CFTR corrector activity compared with inh-2 (CFTR activity, primary screen)” value is recorded as “reduced potency”.

As to `Cc1ns/c(=N\C(=N\c2ccccc2)c2ccccc2)n1Cc1ccc(N)cc1` [Compound 13, (E)-N-((Z)-4-(4-Aminobenzyl)-3-methyl-1,2,4-thiadiazol-5(4H)-ylidene)-N′-phenylbenzimidamide], the “F508del-CFTR corrector activity compared with inh-2 (CFTR activity, primary screen)” value is recorded as “reduced potency”.

For `Cc1ns/c(=N\C(=N\c2ccccc2)c2ccccc2)n1Cc1cccc(C(F)(F)F)c1` [Compound 15, (E)-N-((Z)-3-Methyl-4-(3-(trifluoromethyl)benzyl)-1,2,4-thiadiazol-5(4H)-ylidene)-N′-phenylbenzimidamide], the “F508del-CFTR corrector activity compared with inh-2 (CFTR activity, primary screen)” value was “decreased potency”.

For `Cc1cccc(Cn2c(C)ns/c2=N\C(=N\c2ccccc2)c2ccccc2)c1` [Compound 14, (E)-N-((Z)-3-Methyl-4-(3-methylbenzyl)-1,2,4-thiadiazol-5(4H)-ylidene)-N′-phenylbenzimidamide], the “F508del-CFTR corrector activity compared with inh-2 (CFTR activity, primary screen)” value is recorded as “did not affect the activity”.
